Source: US9788545B2, “Synergistic pesticidal compositions and related methods” (Dow AgroSciences LLC, priority 2013, dated 2017)

Key:
Format in all cases: in vivo
[1] = system: South American brown stink bug, Euschistus heros; experiment: Bean-piece dip bioassay on third-instar nymphs of South American brown stink bug (Example 6); settings: Compound I alone, dose rate 0.04 weight %, treated bean pieces
Text: (§1) The method described in Colby S. R., “Calculating Synergistic and Antagonistic Responses of Herbicide Combinations,” Weeds, 1967, 15, 20-22 was used to determine an existence of synergic effect between the sulfoximine-based nAChR agonist compound and the pesticide (I), (II) or any agriculturally acceptable salt thereof in the formulated pesticidal composition. In this method, the percent insect control of the formulated pesticidal composition as observed in the study was compared to the “expected” percent control (E) as calculated by equation (1) (hereinafter “Colby's equation”) below: […]
The active compounds were formulated in a 10% acetone solution with 0.025% non-ionic surfactant, TWEEN® 20. Bioassays were performed for each different active solution. Bean pieces (about one inch-long) were used for the tests. Four bean pieces were placed in each tested active solution and left there for 10 minutes. Bean pieces were taken out of the active solution, and each piece was placed in a well in a 32-well tray and allowed to air dry. Three third-instar nymphs of South American brown stink bug, Euschistus heros, were infested into each well.

[2] = system: Western flower thrips, Frankliniella occidentalis; experiment: Cotton leaf punch dip bioassay on larval stage 2 nymphs of Western flower thrips (Examples 7A-7D); settings: Compound I alone, dose rate 0.04 weight %, treated cotton leaf punches
Text: as §1
The active compounds were formulated in a 10% acetone solution with 0.025% non-ionic surfactant, TWEEN® 20. Cotton leaf punches were used for bioassays. Two cotton leaf punches were placed in each solution and left there for 10 minutes. Leaves were taken out of the solution, placed on a piece of filter paper in separated Petri dishes, and air dried. Each leaf disc was considered a repetition. Five larval stage 2 nymphs of Western flower thrips, Frankliniella occidentalis, were infested per repetition.

[3] = system: brown stink bug, Euschistus heros; experiment: Diet-treatment bioassay on second-instar nymphs of brown stink bug (Examples 5A, 5B); settings: Compound II alone, dose rate 0.04 weight %, applied to diet
Text: as §1
The percent control of the pesticidal composition against brown stink bug, Euschistus heros, was determined as the “Observed” action, and compared to those obtained by using about 0.04 weight % of Compound II, and using about 0.000156 weight % of sulfoxaflor alone. The “Colby's Expected Action” was calculated using Colby's equation as discussed previously.

| Compound | % Control Four Days After Treatment [1] | % Control Three Days After Treatment [2] | % Control Six Days After Treatment [3] |
| --- | --- | --- | --- |
| CCN(C(=O)CCSCCC(F)(F)F)c1cn(-c2cccnc2)nc1Cl [Compound I, N-(3-chloro-1-(pyridin-3-yl)-1H-pyrazol-4-yl)-N-ethyl-3-((3,3,3-trifluoropropyl)thio)propanamide] | 0% | 0% |  |
| CCN(C(=O)CC[S+]([O-])CCC(F)(F)F)c1cn(-c2cccnc2)nc1Cl (stereo not drawn) [Compound II, N-(3-chloro-1-(pyridin-3-yl)-1H-pyrazol-4-yl)-N-ethyl-3-((3,3,3-trifluoropropyl)sulfinyl)propanamide] |  |  | no control |
